According to US9580426B2, “Compounds that expand hematopoietic stem cells” (Novartis AG, priority 2008, dated 2017):
pEC50: −log10 of the molar value.

Tested on: Primary adult CD34+ human hematopoietic stem cells (HSCs)
Experiment: % CD34+ assay: HSC expansion screen, dose response
Type: cell-based
Conditions: Homo sapiens, Hematopoietic stem cell; dose response 1 nM to 10 μM; total number and/or percent of CD34+ cells
Protocol: Primary adult CD34^+ human hematopoietic stem cells (HSCs) are cultured and screened to identify compounds of the invention that facilitate HSC expansion. The cells are analyzed for the presence of the desired phenotype (CD34 expression). Compounds of the invention promote HSC expansion in a dose dependent manner.
Culture Medium: StemSpan SFEM medium is serum-free medium (StemCell Technologies, Vancouver, BC) supplemented with the following human recombinant cytokines: thrombopoietin, interleukin-6, Flt-3 ligand, and stem cell factor (all from R&D Systems, Minneapolis, Minn.), each at a final concentration of 50 ng/mL, with vehicle (DMSO) or a compound of the invention.
Human Cell Culture: Fresh human leukophoresed G-CSF mobilized peripheral blood from normal donors, CD34^+ cells from adult bone marrow and cryopreserved human cord blood CD34^+ cells are purchased from AllCells (Berkeley, Calif.). Human CD34^+ cells are enriched from leukophoresed G-CSF mobilized peripheral blood using magnetic cell sorting (MACS, Direct CD34 Progenitor Cell Isolation Kit, Miltenyi Biotec, Bergisch Gladbach, Germany) and cryopreserved. CD34^+ cell purity, checked by flow Cytometry, is higher than 90%. After thawing, the cell viability tested by trypan blue exclusion is higher than 70%. The thawed cells are centrifuged and resuspended with StemSpan medium before being aliquoted for immediate culture. Cells are plated at 10^4 cells/mL in a 384 well plate (Greiner Bio-One, Monroe, N.C.) with 50 μL of medium per well for 7 days. Every 7 days the cells are transferred to larger well plates and fresh medium is added to keep the cell density between 10^4 and 5×10^5 cells/mL. Cells were cultured at 37° C. in 5% CO2. For transplantation, cells were cultured in 75 cm^2 flasks before the cells were transplanted into mice. At a concentration of 1 micromolar, 4-(2-(2-(benzo[b]thiophen-3-yl)-9-isopropyl-9H-purin-6-ylamino)ethyl)phenol (compound 1, table 1; example 1), 4-(2-(2-(benzo[b]thiophen-3-yl)-9-sec-butyl-9H-purin-6-ylamino)ethyl)phenol (compound 2, table 1), and N-(2-(1H-indol-3-yl)ethyl)-2-(benzo[b]thiophen-3-yl)-9-isopropyl-9H-purin-6-amine (compound 9, table 1) each gives rise to a greater than 10-fold increase in the number of CD34^+ CD45RA^− cells derived from 1000 mPB CD34^+ HSCs after 21 days compared to vehicle. Compounds of the invention were assayed in a dose response format (1 nM to 10 μM) to determine the effective concentration that produced the desired effect in 50% of the cells (EC50).

pEC50 | SMILES
5.60 | CCCc1nccn1-c1nc(NCCc2ccc(O)cc2)c2ncn(C(C)C)c2n1 [Example 181]
5.96 | Fc1ccc(CCNc2nc(-c3csc4ccccc34)nc3c2ncn3-c2ccccc2)cc1 [Example 19]
8.52 | CCC(C)n1cnc2c(NCCc3c[nH]c4ccccc34)nc(-c3cncc(F)c3)nc21 (centres unmarked) [Example 132]
9.00 | CC[C@@H](C)n1cnc2c(NCCc3c[nH]c4ccccc34)nc(-c3cncc(F)c3)nc21 [Example 132R]
6.66 | Oc1ccc(CCNc2nc(-c3csc4ccccc34)nc3c2ncn3[C@@H]2CCOC2)cc1 [Example 153, (R)-4-(2-(2-(benzo[b]thiophen-3-yl)-9-(tetrahydrofuran-3-yl)-9H-purin-6-ylamino)ethyl)phenol]
7.62 | CC(C)n1cnc2c(NCCc3ccc(O)cc3)nc(-c3cncc(C#N)c3)nc21 [Example 37]
6.19 | CC(C)n1cnc2c(NCCc3ccc(O)cc3)nc(-c3ccnnc3)nc21 [Example 42]
7.72 | CC(C)n1cnc2c(NCCc3ccc(O)cc3)nc(-c3cncc(Cl)c3)nc21 [Example 128, 4-(2-(2-(5-Chloropyridin-3-yl)-9-isopropyl-9H-purin-6-ylamino)ethyl)phenol]
6.28 | Oc1ccc(CCNc2nc(-c3cccnc3)nc3c2ncn3[C@@H]2CCOC2)cc1 [Example 93R]
6.14 | Cc1ccc2[nH]cc(CCNc3nc(-c4cccnc4)nc4c3ncn4C(C)C)c2c1 [Example 62]
5.77 | CC(C)n1cnc2c(NCCc3ccc(O)cc3)nc(-c3ccccn3)nc21 [Example 44]
5.68 | CC(C)n1cnc2c(NCCc3c[nH]c4ccc(OC(=O)CCCCCNC(=O)CCCC[C@@H]5SC[C@@H]6NC(=O)N[C@@H]65)cc34)nc(-c3csc4ccccc34)nc21 [Example 210, 3-(2-(2-(benzo[b]thiophen-3-yl)-9-isopropyl-9H-purin-6-ylamino)ethyl)-1H-indol-5-yl 6-(5-((3aS,4S,6aR)-2-oxohexahydro-1H-thieno[3,4-d]imidazol-4-yl)pentanamido)hexanoate]
5.57 | CC(C)n1cnc2c(NCCN3CCNC3=O)nc(-c3csc4ccccc34)nc21 [Example 81]
6.80 | CC(C)n1ccc2c(NCCc3ccc(O)cc3)nc(-c3cncc(F)c3)nc21 [Example 141, 4-(2-(2-(5-Fluoropyridin-3-yl)-7-isopropyl-7H-pyrrolo[2,3-d]pyrimidin-4-ylamino)ethyl)phenol]
6.72 | CC(C)n1cnc2c(NCCc3ccc(O)cc3)nc(-c3cccnc3)nc21 [Example 15]
6.38 | COc1ccc2[nH]cc(CCNc3nc(-c4cncc(F)c4)nc4c3ncn4C(C)C)c2c1 [Example 172]
6.28 | CC(C)n1cnc2c(NCCc3c[nH]c4ccc(F)cc34)nc(-c3cccnc3)nc21 [Example 149]
5.85 | CC(C)n1cnc2c(NCCc3ccc(O)cc3)nc(-c3cccn3C)nc21 [Example 119]
6.62 | CC(C)n1cnc2c(NCCc3ccc(O)c(Cl)c3)nc(-c3cccnc3)nc21 [Example 146]
5.89 | CC(C)n1cnc2c(NCCc3ccc(O)cc3)nc(-c3ccc(C#N)nc3)nc21 [Example 139]
8.30 | CC(C)n1cnc2c(NCCc3c[nH]c4cc(F)ccc34)nc(-c3cncc(F)c3)nc21 [Example 188]
6.62 | Cc1cscc1-c1nc(NCCc2ccc(O)cc2)c2ncn(C(C)C)c2n1 [Example 58]
5.11 | CC(C)n1c(-c2ccc(-c3ccccc3)cc2)nc2c(NCc3ccccc3)ncnc21 [Example 20]
8.70 | CC[C@H](C)n1cnc2c(NCCc3c[nH]c4ccccc34)nc(-c3cncc(F)c3)nc21 [Example 132S]
6.23 | CC(C)n1cnc2c(NCCc3ccc(O)cc3)nc(-n3cnc4cccnc43)nc21 [Example 159]
5.57 | CC(C)n1cnc2c(NCCN3CCNC3=O)nc(-c3cccnc3)nc21 [Example 70]
6.77 | Oc1ccc(CCNc2nc(-c3csc4ccccc34)nc3c2ncn3C2COC2)cc1 [Example 151]

pEC50 | SMILES
8.00 | Cc1cncc(-c2nc(NCCc3c[nH]c4ccccc34)c3ncn(C(C)C)c3n2)c1 [Example 183]
5.86 | CC(C)n1cnc2c(NCCc3ccsc3)nc(-c3csc4ccccc34)nc21 [Example 10]
5.84 | CC(C)n1cnc2c(NCCc3cccc(O)c3)nc(-c3csc4ccccc34)nc21 [Example 11]
6.82 | Oc1ccc(CCNc2nc(-c3csc4ccccc34)nc3c2ncn3C(c2ccccc2)c2ccccc2)cc1 [Example 3]
5.20 | CC(C)n1cnc2c(NCCNc3ccccn3)nc(-c3cccnc3)nc21 [Example 72]
9.00 | Cc1cc(CCNc2nc(-c3cncc(F)c3)nc3c2ncn3C(C)CO)ccc1O (centres unmarked) [Example 200]
6.34 | CC(C)n1cnc2c(NCCc3ccc(O)cc3)nc(-c3ccccc3)nc21 [Example 16]
6.89 | CCc1nccn1-c1nc(NCCc2ccc(O)cc2)c2ncn(C(C)C)c2n1 [Example 180]
7.20 | Cc1cncc(-c2nc(NCCc3ccc(O)cc3)c3ncn(C(C)C)c3n2)c1 [Example 45]
6.59 | CC(C)n1cnc2c(NCCc3ccc(O)cc3)nc(-n3ccnc3)nc21 [Example 40]
6.33 | Oc1ccc(CCNc2nc(-c3cncc(F)c3)nc3c2ncn3C2COC2)cc1 [Example 127]
6.46 | Oc1ccc(CCNc2nc(-c3csc4ccccc34)nc3c2ncn3[C@H]2CCOC2)cc1 [Example 152]
5.66 | CC(C)n1cnc2c(NCCc3ccc(O)nc3)nc(-c3cncc(F)c3)nc21 [Example 174]
7.52 | CCC(C)n1cnc2c(NCCc3ccc(O)cc3)nc(-c3csc4ccccc34)nc21 (centres unmarked) [Example 2, 4-(2-(2-(benzo[b]thiophen-3-yl)-9-sec-butyl-9H-purin-6-ylamino)ethyl)phenol]
6.47 | Cc1ccncc1-c1nc(NCCc2ccc(O)cc2)c2ncn(C(C)C)c2n1 [Example 35]
5.27 | CC(C)n1cnc2c(NCCc3ccc(O)cc3)nc(-c3cncc4ccccc34)nc21 [Example 145]
6.42 | CC(C)n1ncc2c(NCCc3ccc(O)cc3)nc(-c3csc4ccccc34)nc21 [Example 135]
7.92 | Fc1cncc(-c2nc(NCCc3c[nH]c4ccccc34)c3ncn([C@@H]4CCOC4)c3n2)c1 [Example 158]
5.89 | CC(C)n1cnc2c(NCCc3ccc(O)cc3)nc(-c3cccs3)nc21 [Example 55]
6.92 | CC(C)n1cnc2c(NCCc3ccc(O)cc3)nc(-c3cncc(C(F)(F)F)c3)nc21 [Example 129]
5.22 | Cc1n[nH]c(SCCNc2nc(-c3cccnc3)nc3c2ncn3C(C)C)n1 [Example 76]
6.74 | N#Cc1cncc(-c2nc(NCCc3ccc(O)cc3)c3ncn(C4COC4)c3n2)c1 [Example 133]
5.10 | CC(C)n1cnc2c(NCCc3n[nH]c(N)n3)nc(-c3csc4ccccc34)nc21 [Example 82]
7.59 | Cc1ccc2c(CCNc3nc(-c4cncc(F)c4)nc4c3ncn4C(C)C)c[nH]c2c1 [Example 189]
8.70 | CC(C)n1cnc2c(NCCc3c[nH]c4c(F)cccc34)nc(-c3cncc(F)c3)nc21 [Example 196]
8.10 | C[C@H](CO)n1cnc2c(NCCc3c[nH]c4ccccc34)nc(-c3cncc(F)c3)nc21 [Example 157R, (R)-2-(6-(2-(1H-indol-3-yl)ethylamino)-2-(5-fluoropyridin-3-yl)-9H-purin-9-yl)propan-1-ol]
